# Test results reported in PubChem BioAssay AID1159560 (GlaxoSmithKline (GSK), 2015).
# Activity calls are given as the source filed them. How the calls were made is not given here.
# System: Leishmania donovani growth inhibition
# Test: antileishmanial activity against L. donovani parasites (AID 1159560);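 further: parasites exposed to compound for 72 h before the viability read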
row,SMILES,IC50
1,O=C(Cn1cnc2cc([N+](=O)[O-])ccc2c1=O)NCCc1ccc(Cl)cc1Cl,> 50 µM (inactive)
2,O=C(NCCc1csc(-c2ccc(F)cc2)n1)c1cccs1,> 50 µM (inactive)
3,O=C(Cn1cnc([N+](=O)[O-])n1)Nc1ccc(Cl)cc1C(=O)c1ccccc1,> 50 µM (inactive)
4,CC(C)(C)CC(=O)NCc1noc(COc2ccccc2)n1,> 50 µM (inactive)
5,O=C(Nc1nc2ccccc2[nH]1)c1ccc2nc[nH]c2c1,2.5 µM
6,Cc1cn[nH]c1C1CCCN(Cc2nc3ccccc3n2C)C1 (stereo unspecified),16 µM
7,CCNc1cc(-c2ccccn2)nc(Nc2ccc(OC)cc2)n1,1.6 µM
8,O=C(CN(Cc1ccccn1)Cc1ccccn1)NC1Cc2ccccc2C1,13 µM
9,c1ccc(CCNCc2cncc3nc(-c4cnccn4)n(C4CCCCC4)c23)cc1,> 50 µM (inactive)
10,COc1cccc(S(=O)(=O)Nc2ccc3c(c2)CC(N2CCC(NC(=O)C4CC4)CC2)C3)c1 (stereo unspecified),> 50 µM (inactive)
11,CCc1cccc(CC)c1-n1c(SCC(=O)NC(=O)NCc2ccco2)nnc1-c1cccnc1,> 50 µM (inactive)
12,O=C(Nc1nc(-c2ccccn2)cs1)N1C[C@H]2C[C@@]2(c2ccccc2)C1,2 µM
13,N#Cc1ccc(Br)cc1[N+](=O)[O-],7.9 µM
14,CN(C)Cc1ccc(-c2ccc(S(=O)(=O)NCC3CCCO3)c(F)c2)cc1 (stereo unspecified),> 63 µM (inactive)
15,Cc1c([N+](=O)[O-])c(C(=O)Nc2sc3c(c2C#N)CCC(C)C3)nn1C (stereo unspecified),25 µM
16,COc1cccc(-c2cc(C(F)(F)F)nc(-n3ccc([N+](=O)[O-])n3)n2)c1,> 50 µM (inactive)
17,COc1ccc2ncc(=O)n(CCN3CCOC(CNCc4ccc(C(F)(F)F)cc4F)C3)c2n1 (stereo unspecified),40 µM
18,O=C(NC(c1ccc(Cl)cc1)c1cnccn1)C1CCN(C(=O)Nc2cccc(C(F)(F)F)c2)CC1 (stereo unspecified),20 µM
19,COCc1cc(Nc2ccccc2)nc(-c2ccccn2)n1,7.9 µM
20,NCC(Cc1ccccc1)NC(=O)c1cnc(-c2c[nH]c3ncccc23)s1 (stereo unspecified),> 50 µM (inactive)
21,Cn1ccnc1CN1CCc2[nH]cnc2C1c1ccccc1OCc1ccccc1 (stereo unspecified),> 50 µM (inactive)
22,O=C(Nc1ccc(C(F)(F)F)cc1)NC1(C(=O)NCc2ccco2)CCCCC1,40 µM

row,SMILES,IC50
1,CNc1c(C(N)=O)c(-c2ccc3scnc3c2)nn1CC(F)(F)F,> 50 µM (inactive)
2,CCCNC(=O)Nc1cccc(-c2nc3ncccc3o2)c1,3.2 µM
3,Cc1cc2nc(CN(C)Cc3ncccc3C)[nH]c2cc1C,5 µM
4,C[C@@H](Oc1cc(-n2cnc3cc(N)ccc32)sc1C(N)=O)c1ccccc1Cl,3.2 µM
5,COc1ccc(S(=O)(=O)Nc2ccc(CN3CCN(C(=O)c4cccc(C#N)c4)CC3)cc2)cc1,32 µM
6,O=C(c1ccc(Cl)cc1)c1ccc(OC(=O)N2CCOCC2)cc1,6.3 µM
7,C[C@@H](Oc1cc(-n2cnc3ccc(O[C@H]4CCNC4)cc32)sc1C(N)=O)c1ccccc1Cl,> 50 µM (inactive)
8,Cc1nn2c(NCCCO)c3c(nc2c1-c1cccs1)CCC3,2 µM
9,O=S1N=C(NCCCN(Cc2ccc(F)cc2)c2ccccn2)C(NCc2ccncc2)=N1 (stereo unspecified),> 50 µM (inactive)
10,O=C1c2cnc(N3CCCC3)nc2CN1c1ccc2c(c1)OCO2,6.3 µM
11,Cc1nn(C2CCS(=O)(=O)C2)c(C)c1CN(C)C(=O)C=Cc1sc2ccccc2c1Cl (stereo unspecified),13 µM
12,CCNc1cc(-c2ccccn2)nc(Nc2ccccc2)n1,2.5 µM
13,O=c1ccc2ccc(F)c3c2n1C[C@H]3CN1CCN(CC(O)c2cc3c(cn2)OCS3)CC1 (stereo partly specified),20 µM
14,COCc1cnc2c(c1SCc1c(F)cccc1Cl)c(=O)n(C)c(=O)n2C,4 µM
15,CC1CN(S(=O)(=O)c2ccc(NC(=O)c3cc(C4CC4)nc4c3cnn4C(C)C)cc2)CC(C)O1 (stereo unspecified),20 µM
16,O=[N+]([O-])c1ccc(-c2nnn(-c3cccnc3)n2)o1,16 µM
17,O=[N+]([O-])c1cccc(Nc2cncc(-c3ccccc3CO)c2)c1,40 µM
18,Cc1ccccc1OCC(=O)N1CCCN(c2cccnn2)CC1,13 µM
19,Cc1nn(C)c(Cl)c1CN(Cc1cccnc1)Cc1ccsc1,2 µM
20,N#Cc1cc([N+](=O)[O-])ccc1NC1CCCCCC1,> 50 µM (inactive)
21,Cc1cc(Nc2cc(C3CC3)[nH]n2)nc(N2CCC[C@H]2C(N)=O)n1,0.63 µM
22,CNc1cncc(C2CCCN2C(=O)Cc2ccc3ccccc3c2)n1 (stereo unspecified),> 50 µM (inactive)

row,SMILES,IC50
1,CN(C)Cc1cccc(Nc2nccc(-c3ccc(NCCN)c(C#N)c3)n2)c1,2.5 µM
2,O=C(NC1C(=O)N(c2ccccc2)C1c1cccnc1)c1ccc(Cl)s1 (stereo unspecified),1 µM
3,CN(C)S(=O)(=O)c1ccc(-c2cnc(N)c(-c3nc4ccc(F)cc4[nH]3)c2)cc1,2.5 µM
4,CC(C(=O)Nc1ccccc1F)N(C)CC(=O)Nc1cccc2ccccc12 (stereo unspecified),50 µM
5,O=C(NC(CO)c1ccc(F)cc1)c1ccc(-c2c[nH]c3ncccc23)s1 (stereo unspecified),32 µM
6,O=C(Cc1ccccc1)Nc1[nH]nc2sc(C(=O)NC3CCCC3)cc12,4 µM
7,CC(Cn1ccnc1)NC(=O)C=Cc1ccc(Cl)cc1 (stereo unspecified),> 50 µM (inactive)
8,CC(C)Nc1nccc(-c2c(-c3ccc(F)cc3)ncn2C2CCOCC2)n1,25 µM
9,CC(C)(C)c1csc(NC(=O)c2ccc([N+](=O)[O-])s2)n1,1.6 µM
10,Cc1cccc(NS(=O)(=O)c2ccc3c(c2)C(=O)c2cc(S(=O)(=O)Nc4cccc(C)c4C)ccc2-3)c1C,> 50 µM (inactive)
11,Oc1cccnc1-c1n[nH]c(Cc2ccccc2)n1,2 µM
12,COc1ccc(-c2cnc(C)o2)cc1S(=O)(=O)Nc1ccc(C)cc1C,4 µM
13,O=c1ccn(-c2ccc([N+](=O)[O-])cc2Cl)c2ccc(F)cc12,> 50 µM (inactive)
14,Cc1ccc(NC(=O)c2ccnc(N3CCCC3)c2)cc1-c1cc(C(N)=O)ccc1C,25 µM
15,CCC(CC)C(=O)Nc1ccc(-c2nnc(-c3ccc(OC)cc3)o2)cc1,> 50 µM (inactive)
16,CC(c1cc(Cl)cc(Cl)c1)N(C)c1ncc2c(N)nc(N)nc2n1 (stereo unspecified),0.79 µM
17,CCOc1cnn(C)c(=O)c1Nc1ccc(C(=O)NCc2ccc(F)cc2)cc1,32 µM
18,Cc1ccc(C)c(-n2nnnc2Sc2nc([N+](=O)[O-])nn2C)c1,> 50 µM (inactive)
19,Cc1ccc(-c2csc(NC(=O)C=Cc3ccc(S(=O)(=O)N4CCOCC4)cc3)n2)o1,6.3 µM
20,Cc1[nH]nc(Nc2ccnc3[nH]ccc23)c1C,> 50 µM (inactive)
21,CC(=O)Nc1ccc(-c2cnc(N)c(-c3nc4ccc(F)cc4[nH]3)c2)cc1,6.3 µM
22,Oc1c(-c2n[nH]c(Cc3ccc(Cl)cc3)n2)ncc2cccnc12,0.25 µM

row,SMILES,IC50
1,CC(C)(C)c1cc(NC2CC2)nc(-c2ccccn2)n1,1.6 µM
2,NCc1csc(Nc2cc(Oc3ccccc3)ncn2)n1,> 50 µM (inactive)
3,CC(C)C[C@H](NC(=O)c1ccc(-c2ccccc2)o1)C(=O)NC1(C#N)CC1,> 50 µM (inactive)
4,CCCCCNC(=O)c1c[nH]c2ccc(S(=O)(=O)N(C)c3ccc(OCC)cc3)cc2c1=O,> 50 µM (inactive)
5,CCc1c(C)nc(-n2nc(C)cc2NC(=O)COc2ccccc2F)[nH]c1=O,0.13 µM
6,Cc1nc(-c2ccc3c(c2)OCO3)sc1C(=O)NCc1ccc2c(c1)OCO2,2 µM
7,Cc1[nH]n2c(=O)c3c(nc2c1-c1ccc(Cl)cc1)CCCC3,1.3 µM
8,CCN(Cc1ccncc1)Cc1ccc(NC(=O)c2cc(-c3ccc(F)cc3)n[nH]2)cc1,16 µM
9,CC(C)CC(=O)NC(c1cccs1)c1ccc2cccnc2c1O (stereo unspecified),6.3 µM
10,Cc1cc(Nc2cc(C3CC3)[nH]n2)nc(N2CCCC2)n1,0.79 µM
11,c1ccc2sc(Nc3nc4ncccc4[nH]3)nc2c1,1.6 µM
12,Cn1cc(CN2CCN(c3ccc4c(c3)CCN(C(=O)[C@H]3C[C@@H]3c3ccccc3)CC4)CC2)cn1,0.63 µM
13,CCOc1ccc(NC(=O)c2ccc(NC(=O)NC3CCCCC3)cc2)cc1,> 50 µM (inactive)
14,O=C(CSc1nnc2ccc(-c3ccc(F)cc3)nn12)N1CCCCC1,> 50 µM (inactive)
15,Nc1ncnc2c1ncn2[C@@H]1O[C@H](CO)C[C@H]1O,> 50 µM (inactive)
16,COc1ccccc1C(=O)Nc1nnc(-c2ccc3c(c2)OCO3)s1,1 µM
17,O=c1cc(CSc2ccc(Cl)cc2)nc(-c2ccccn2)[nH]1,1.6 µM
18,O=C(Cc1ccccc1)Nc1ccccc1C(=O)Nc1nccs1,> 50 µM (inactive)
19,O=C(c1ccc(O)c(Cl)c1)N1CCN(c2cnccn2)CC1,0.32 µM
20,CC1=C(C(=O)Nc2ccc(Cl)cc2)C(c2ccncc2)n2ncc(C(=O)Nc3ccccc3)c2N1 (stereo unspecified),0.13 µM
21,COc1ccc([N+](=O)[O-])cc1NC(=O)Nc1cccc(Cl)c1,> 50 µM (inactive)
22,Cc1c(C(=O)NCCCCn2ccnc2)oc2c(C)cccc12,> 50 µM (inactive)

row,SMILES,IC50
1,COc1ccccc1-n1c(SCC(=O)Nc2ccc3c(c2)OCO3)nc2c(c1=O)SCC2,10 µM
2,Cc1cc(Nc2ccc(C#N)c(Cl)c2C)n[nH]1,50 µM
3,CCOc1ccc(NC(=O)C=Cc2ccc(CC)o2)cc1,20 µM
4,Cc1ccc(S(C)(=O)=O)cc1Nc1nccc(-c2sc(N)nc2-c2ccccc2)n1,3.2 µM
5,C=CC[C@@H]1CC=C[C@@H](C)N1C(=O)CCc1nnc(-c2ccc3c(c2)OCO3)o1,6.3 µM
6,CCN(CC)S(=O)(=O)c1ccc(C(=O)Nc2cc(C)nn2-c2nc(C)c(C)c(=O)[nH]2)cc1,0.5 µM
7,CC(C)Oc1cccc(N2CCC(C(=O)N3CCCN(C(C)C)CC3)CC2)c1,> 50 µM (inactive)
8,Cn1nccc1-c1cc(OC(CN)c2ccccc2)cnc1-c1ccco1 (stereo unspecified),> 50 µM (inactive)
9,COc1ccc(-c2nc3ccncc3c(=O)n2CCOc2ccccc2)cc1,40 µM
10,c1ccc2[nH]c(-c3ccc(N4CCCC4)nc3)nc2c1,5 µM
11,COc1cccc(CCNC(=O)C(c2cn[nH]c2)N2CCN(c3ccc(Cl)cc3)CC2)c1 (stereo unspecified),13 µM
12,COc1cccc(-c2c(C)nn(-c3nc(N)nc(-c4ccccn4)n3)c2N)c1,5 µM
13,CCC(=O)Nc1ccc(C(=O)Nc2ccccc2-c2ccccc2)cc1,10 µM
14,CN(C(=O)Nc1ccc2c(c1)CCN(C1CCC1)CC2)c1ccc(C#N)cc1,40 µM
15,O=C(CN(Cc1ccccn1)Cc1ccccn1)NCc1ccc2c(c1)OCO2,13 µM
16,CCc1cccc(CC)c1-n1c(SCC(=O)N2CC(=O)Nc3ccccc32)nnc1-c1cccnc1,40 µM
17,N#Cc1nc(C=Cc2ccccc2)oc1NCc1cccnc1,25 µM
18,NS(=O)(=O)c1ccc(Nc2nccc(-c3cnn4ncccc34)n2)cc1,0.79 µM
